Source: US20230131111A1, “BIODEGRADABLE POLYIMIDAZOLIUMS AND OLIGOIMIDAZOLIUMS” (Nanyang Technological University, priority 2020, published 2023)

What was measured:
[1] = test system: MDR A. baumannii AB-1; assay: Murine septicemia model; type: in vivo, BALB/c mice; conditions: single dose 15 mg/kg
Method: (§1) Murine septicemia model was used to evaluate the in vivo efficacy of PIM1D. The experiment for mice septicemia infection model of MDR P. aeruginosa PAER and MDR A. baumannfi AB-1 was conducted within guidance of approved protocol by the Institutional Care and Use Committee of Nanyang Technological University (NTU IACUC). The experiments for murine septicemia infection model of wild type P. aeruginosa PAO1 and methicillin-resistant S. aureus MRSA USA300 were conducted following protocol reviewed and approved by Animal Ethics and Welfare Committee (AEWC) of Ningbo University. BALB/c female mice (8-9 weeks of age) were used to test the septic shock protection efficacy for all murine infection models. Exponential phase bacteria were washed twice with saline, and re-suspended into the same volume of saline. 300 μL bacterial suspension with varied concentration in 5% mucin was introduced into each mouse via IP injection to first determine the lethal bacterial dosage, and the determined concentration was then used in the following study. […] Mouse survival was monitored over 7 days. […] Bacterial loads were also evaluated in the spleen, liver and kidney of the animal. […] The bacterial levels were analyzed with one-way classification analysis of variance (ANOVA) and two-tailed student's t-test (Graphpad Prism for Windows, version 7).

[2] = test system: P. aeruginosa PAO1; assay: Laboratory evolution of resistance, sequential passage; conditions: 30 days of passage
[3] = test system: methicillin-resistant S. aureus MRSA USA300; assay: Murine septicemia model, immunosuppressed mice; type: in vivo, BALB/c mice; conditions: 15 mg/kg IP at 2 h and 26 h post-infection
Method: as §1, with “7). […]” for “7).”

[4] = test system: MRSA USA300; assay: Neutropenic lung infection model; type: in vivo, BALB/c mice; conditions: 20 mg/kg intratracheal, one week
Method: Immunosuppression was induced by IP injection of cyclophosphamide (150 mg/kg) at day 4 and cyclophosphamide (100 mg/kg) at day 1 into BALB/c female mice (8-9 weeks of age) before infection was introduced. Lung infection was established by intratracheal delivery of MRSA USA300 or K. pneumoniae (#13883). […] The mice were monitored for survival over one week. In a separate experiment, mice lungs were harvested 26 h post-infection and homogenized, followed by plating to check the bacterial burden. The animal study protocols were approved by animal ethics and welfare committee at Ningbo University.

[5] = test system: P. aeruginosa PAO1; assay: Killing of stationary phase bacteria; type: cell-based, Pseudomonas aeruginosa
Source text: We used a previously reported method (S. Meylan et al., Cell Chem. Biol. 2017, 24, 195-206) to determine the effect of PIM1 and other antibiotics on the survival of stationary phase P. aeruginosa PAO1, except the stationary-phase cells were obtained by overnight growth in MHB, and we compared PIM1 with GEN. The results were compared to those with P. aeruginosa PAO1 harvested from MHB culture at the mid-Log growth phase. In addition, we tested the ability of an energy source to potentiate PIM1 killing of stationary-phase P. aeruginosa by addition of fumarate (15 mM) to the stationary-phase cells.

[6] = test system: P. aeruginosa PAO1; assay: Membrane electric potential, DiS-C3-(5); type: cell-based, Pseudomonas aeruginosa; conditions: 30 min after addition
Method: Agents Chemother. 2000, 44, 3317-3321). […] The cell suspension (180 μL) was then added to each well of a 96-well plate, and the test compounds were added to the wells as indicated to bring the final mixture to 200 μL. Fluorescence was measured in each well every 2 min in a Spark 10M microtiter plate reader (Tecan, Switzerland) with excitation at 622 nm and emission 670 nm. Data were collected at 30 min after the addition of the test compound. Two independent experiments were conducted, and the data here are mean values±SD.

[7] = test system: P. aeruginosa PAER; assay: MIC90 broth microdilution; type: cell-based, Pseudomonas aeruginosa
[8] = test system: S. aureus USA300 (MRSA); assay: MIC90 broth microdilution; type: cell-based, Staphylococcus aureus
[9] = test system: Burkholderia thailandensis 700388; type: cell-based; parameters: MIC90 Burkholderia thailandensis 700388: unit not given here; conditions: naturally colistin-resistant
[10] = test system: 3T3 cells; assay: Mammalian cell cytotoxicity, MTT; type: cell-based, Mouse; conditions: half-maximal inhibition of cell viability
[11] = test system: A549 cells; assay: Mammalian cell cytotoxicity, MTT; type: cell-based, Human; conditions: half-maximal inhibition of cell viability
[12] = test system: A. baumannii X26; assay: MIC90 broth microdilution; type: cell-based, Acinetobacter baumannii; parameters: MIC90 A. baumanii X26 (MDR): unit not given here
[13] = test system: A. baumannii X39; assay: MIC90 broth microdilution; type: cell-based, Acinetobacter baumannii; parameters: MIC90 A. baumanii X39 (XDR): unit not given here
[14] = test system: S. aureus BAA40 (MRSA); assay: MIC90 broth microdilution; type: cell-based, Staphylococcus aureus; parameters: unit not given here
[15] = test system: E. faecalis 583 (VRE); assay: MIC90 broth microdilution; type: cell-based, Enterococcus faecalis; parameters: unit not given here
[16] = test system: HEK293 cells; assay: Mammalian cell cytotoxicity, MTT; type: cell-based, Human; conditions: half-maximal inhibition of cell viability
[17] = test system: A. baumannii AB-1 (MDR); assay: MIC90 broth microdilution; type: cell-based, Acinetobacter baumannii
[18] = test system: Mycobacterium bovis bacillus Calmette-Guérin; type: cell-based
[19] = test system: HepG2 cells; assay: Mammalian cell cytotoxicity, MTT; type: cell-based, Human; conditions: half-maximal inhibition of cell viability

`C[C@@H](O)[C@H]1C(=O)N2C(C(=O)O)=C(SCCN=CN)C[C@H]12` [Imp, Imipenem] showed a survival [1] of 80%.

In the case of `O=C(O)c1cn(C2CC2)c2cc(N3CCNCC3)c(F)cc2c1=O` [ciprofloxacin], the “emergence of resistant mutants” value [2] is reported as “ciprofloxacin-resistant mutants emerged”.

`CN[C@H](CC(C)C)C(=O)N[C@H]1C(=O)N[C@@H](CC(N)=O)C(=O)N[C@H]2C(=O)N[C@H]3C(=O)N[C@H](C(=O)N[C@H](C(=O)O)c4cc(O)cc(O)c4-c4cc3ccc4O)[C@H](O)c3ccc(c(Cl)c3)Oc3cc2cc(c3O[C@@H]2O[C@H](CO)[C@@H](O)[C@H](O)[C@H]2O[C@H]2C[C@](C)(N)[C@H](O)[C@H](C)O2)Oc2ccc(cc2Cl)[C@H]1O` [vancomycin] was tested, and the survival [3] was “all mice survived” and the survival [4] was 40%.

For gentamicin, the “susceptibility of stationary phase cells to killing” value ([5]; compared with killing by colistin, 4-h exposure) was “much less susceptible” and the “bactericidal activity on stationary-phase cells with fumarate” value ([5]; fumarate 15 mM) was “restored”.

gramicidin was tested, and the “DiS-C3-(5) fluorescence (dissipation of membrane potential)” value [6] was “dramatic increase in DiS-C3-(5) fluorescence”.

With polymyxin B the “MIC90 P. aeruginosa PAER” value [7] was 2 mg per mL, the “MIC90 S. aureus USA300 (MRSA)” value [8] was 64-128 mg per mL and the “MIC90 Burkholderia thailandensis 700388” value [9] was over 128. The “IC50 Mouse fibroblast (3T3)” value [10] was 920 μg per mL, the “IC50 Human epithelial (A549)” value [11] was 879 μg per mL and the “MIC90 A. baumanii X26 (MDR)” value [12] was 4. The “MIC90 A. baumanii X39 (XDR)” value [13] was 8, the “MIC90 S. aureus BAA40 (MRSA)” value [14] was 64-128 and the “MIC90 E. faecalis 583 (VRE)” value [15] was over 128. For the same molecule, the “IC50 Human kidney (HEK293)” value [16] was 240 μg per mL, the “MIC90 A. baumanii AB-1 (MDR)” value [17] was 2 mg per mL and the “MIC90 Mycobacterium bovis bacillus Calmette-Guérin” value [18] was 64 mg per mL. For the same molecule, the “IC50 Human liver (HepG2)” value [19] was 765 μg per mL.
